From US4301177A, “(3-Methyl-2-butenyl)propanedioic acid mono (1,2-diphenylhydrazide) and salts thereof” (Istituto de Angeli S.p.A., priority 1979, dated 1981)
Counter-ions that a name gives are not always drawn.

Columns and labels:
[1] = test system: rats; test: Antipyretic activity, fever induced by brewer's yeast in rats (Table V); format: in vivo, male Sprague-Dawley rats
Procedure: (§1) In the present study the test compounds were administered perorally by means of a stomach tube as an aqueous suspension in 5% acacia gum at a constant volume of 10 ml/kg to male Swiss mice and male Sprague-Dawley rats. Control rats and mice were given a corresponding volume of the aqueous suspension medium. The results were statistically evaluated by Dunnett's test (C. V. Dunnett.: J.A. Stat. Ass., 40, 1096, 1955).
The antipyretic activity was investigated in rats by the method of Niemegeers et al. (see Arzneim.Forsch. 25, 1519, 1975). The rectal temperature was measured immediately before and 4 hours after the subcutaneous injection of 1 ml/100 g body weight of a 15% brewer's yeast suspension in 1% acacia gum.
The test compound was administered orally to groups of 5 different rats per dose 4 hours after the yeast injection. The rectal temperature was measured 0.5, 1, 1.5, 2, 2.5, 3 and 19 hours after treatment.
(§2) Average values of the temperatures obtained in the treated rats were compared with those of control rats.

[2] = test system: rats; test: Effect on normal temperature of rats (Table VI); format: in vivo, male Sprague-Dawley rats
Procedure: as §1
6. Effect on normal temperature of rats
The rectal temperature was measured at 30-minute intervals before and after administration of the test compound, that is, at -1.5, -1, -0.5, 0.5, 1, 1.5 and 2 hours, using groups of 10 rats each for each dosage level.
as §2

[3] = test system: rats; test: Ulcerogenic effect, gastric lesions in rats (Table VIII); format: in vivo, male Sprague-Dawley rats; conditions: single dose; for % animals with gastric lesions: 16 h
Procedure: as §1
The ulcerogenic effect was determined in rats by the method of Niemegeers et al. (Arzneimittel-Forschung 25, 1537, 1975). A single oral dose was administered to groups of 15 rats fasted for 9 hours before treatment and kept fasting throughout the whole experimental period. The animals were sacrificed 16 hours after treatment; the severity of lesions was scored according to an arbitrary scale ranging from + to ++++. For each group of rats, an ulcerogenic index was calculated according to Pauls et al., (Gastroenterology 8, 774, 1947).

[4] = test system: mice; test: Analgesic activity, hot plate test in mice (Table III); format: in vivo, male Swiss mice
Procedure: as §1
The analgesic activity was evaluated in mice by the hot plate test according to Janssen and Jageneau (J.Pharm.Pharmac., 9, 381, 1957).
The plate temperature was kept constant at 55° C.; the reaction time was determined before and 30, 60, 90 and 120 minutes after oral administration of the test compound. Average values after administration of the test compound were compared to those obtained before treatment.

[5] = test system: rats; test: Analgesic-anti-inflammatory activity, Randall and Selitto, brewer's yeast inflamed paw in rats (Table IV); format: in vivo, male Sprague-Dawley rats
Procedure: as §1
4. Analgesic-anti-inflammatory activity
The analgesic-anti-inflammatory activity was evaluated in rats by the method of Randall and Selitto (Arch. Int. Pharmacodyn., 111, 409, 1957), using an analgesimeter to measure the minimum load that must be applied to a rat's hind paw to elicit a painful stimulus.
Both the controls and the experimental rats were injected into the right hind paw with 0.1 ml of 20% brewer's yeast in sterile saline immediately before the administration of the test compound.
The volume of the inflamed right hind paw was measured 1, 2 and 4 hours after the administration of the test compound.
The analgesic-anti-inflammatory activity was evaluated using an "analgesic index" expressed as a ratio between the sum of the average weights (grams) necessary to provoke a painful stimulus at different times in treated and control animals.

[6] = test system: rats; test: Effect on arthritis induced in rats by Freund's adjuvant (Table II); format: in vivo, male Sprague-Dawley rats; conditions: day 20

Structure (SMILES): CCCCC(C(=O)O)C(=O)N(Nc1ccccc1)c1ccccc1 (centres unmarked) [B, Calcium salt of butylpropanedioic acid mono(1,2-diphenylhydrazide), reference compound]
- Rectal temperature ([1]; 40 mg/kg oral, 0 h (4 h after yeast, before treatment)): 38.08 °C
- Rectal temperature ([1]; 40 mg/kg oral, 0.5 h): 38.05 °C
- Rectal temperature ([1]; 40 mg/kg oral, 1 h): 38.20 °C
- Rectal temperature ([1]; 40 mg/kg oral, 1.5 h): 38.09 °C
- Rectal temperature ([1]; 40 mg/kg oral, 2 h): 38.17 °C
- Rectal temperature ([1]; 40 mg/kg oral, 2.5 h): 38.45 °C
- Rectal temperature ([1]; 40 mg/kg oral, 3 h): 38.01 °C
- Rectal temperature ([1]; 40 mg/kg oral, 19 h): 37.28 °C
- Rectal temperature ([1]; 40 mg/kg oral, -4 h (before yeast)): 36.74 °C
- Rectal temperature ([1]; 80 mg/kg oral, 0 h (4 h after yeast, before treatment)): 38.02 °C
- Rectal temperature ([1]; 80 mg/kg oral, 0.5 h): 37.10 °C
- Rectal temperature ([1]; 80 mg/kg oral, 1 h): 37.38 °C
- Rectal temperature ([1]; 80 mg/kg oral, 1.5 h): 37.48 °C
- Rectal temperature ([1]; 80 mg/kg oral, 2 h): 37.65 °C
- Rectal temperature ([1]; 80 mg/kg oral, 2.5 h): 37.96 °C
- Rectal temperature ([1]; 80 mg/kg oral, 3 h): 37.80 °C
- Rectal temperature ([1]; 80 mg/kg oral, 19 h): 37.44 °C
- Rectal temperature ([1]; 80 mg/kg oral, -4 h (before yeast)): 36.96 °C
- Rectal temperature ([1]; 160 mg/kg oral, 0 h (4 h after yeast, before treatment)): 38.52 °C
- Rectal temperature ([1]; 160 mg/kg oral, 0.5 h): 37.89 °C
- Rectal temperature ([1]; 160 mg/kg oral, 1 h): 37.81 °C
- Rectal temperature ([1]; 160 mg/kg oral, 1.5 h): 37.90 °C
- Rectal temperature ([1]; 160 mg/kg oral, 2 h): 37.34 °C
- Rectal temperature ([1]; 160 mg/kg oral, 2.5 h): 37.50 °C
- Rectal temperature ([1]; 160 mg/kg oral, 3 h): 37.41 °C
- Rectal temperature ([1]; 160 mg/kg oral, 19 h): 36.75 °C
- Rectal temperature ([1]; 160 mg/kg oral, -4 h (before yeast)): 36.06 °C
- Rectal temperature (normal rats) ([2]; 40 mg/kg oral, 0.5 h): 36.02 °C
- Rectal temperature (normal rats) ([2]; 40 mg/kg oral, 1 h): 36.13 °C
- Rectal temperature (normal rats) ([2]; 40 mg/kg oral, 1.5 h): 36.10 °C
- Rectal temperature (normal rats) ([2]; 40 mg/kg oral, 2 h): 36.20 °C
- Rectal temperature (normal rats) ([2]; 40 mg/kg oral, -0.5 h (before administration)): 36.33 °C
- Rectal temperature (normal rats) ([2]; 40 mg/kg oral, -1 h (before administration)): 36.62 °C
- Rectal temperature (normal rats) ([2]; 40 mg/kg oral, -1.5 h (before administration)): 37.15 °C
- Rectal temperature (normal rats) ([2]; 80 mg/kg oral, 0.5 h): 36.14 °C
- Rectal temperature (normal rats) ([2]; 80 mg/kg oral, 1 h): 36.27 °C
- Rectal temperature (normal rats) ([2]; 80 mg/kg oral, 1.5 h): 36.31 °C
- Rectal temperature (normal rats) ([2]; 80 mg/kg oral, 2 h): 36.47 °C
- Rectal temperature (normal rats) ([2]; 80 mg/kg oral, -0.5 h (before administration)): 36.34 °C
- Rectal temperature (normal rats) ([2]; 80 mg/kg oral, -1 h (before administration)): 36.51 °C
- Rectal temperature (normal rats) ([2]; 80 mg/kg oral, -1.5 h (before administration)): 36.69 °C
- Rectal temperature (normal rats) ([2]; 160 mg/kg oral, 0.5 h): 35.62 °C
- Rectal temperature (normal rats) ([2]; 160 mg/kg oral, 1 h): 35.70 °C
- Rectal temperature (normal rats) ([2]; 160 mg/kg oral, 1.5 h): 35.92 °C
- Rectal temperature (normal rats) ([2]; 160 mg/kg oral, 2 h): 36.24 °C
- Rectal temperature (normal rats) ([2]; 160 mg/kg oral, -0.5 h (before administration)): 36.00 °C
- Rectal temperature (normal rats) ([2]; 160 mg/kg oral, -1 h (before administration)): 36.52 °C
- Rectal temperature (normal rats) ([2]; 160 mg/kg oral, -1.5 h (before administration)): 36.50 °C
- Body weight, mean ± standard deviation ([3]; 40 mg/kg oral): 194.67 ± 7.43 grams
- % animals with gastric lesions ([3]; 40 mg/kg oral): 0%
- Body weight, mean ± standard deviation ([3]; 80 mg/kg oral): 190.67 ± 8.84 grams
- % animals with gastric lesions ([3]; 80 mg/kg oral): 0%
- Body weight, mean ± standard deviation ([3]; 160 mg/kg oral): 198.00 ± 11.46 grams
- % animals with gastric lesions ([3]; 160 mg/kg oral): 6.66%
- Body weight, mean ± standard deviation ([3]; 320 mg/kg oral): 186.67 ± 7.24 grams
- % animals with gastric lesions ([3]; 320 mg/kg oral): 64.28%
- Reaction time ([4]; 50 mg/kg oral, 0 (before administration)): 14.00 ± 3.80 s
- Reaction time ([4]; 50 mg/kg oral, 30 min): 16.50 ± 3.60 s
- Reaction time ([4]; 100 mg/kg oral, 0 (before administration)): 14.30 ± 2.67 s
- Reaction time ([4]; 100 mg/kg oral, 90 min): 17.10 ± 4.48 s
- Reaction time ([4]; 100 mg/kg oral, 120 min): 16.10 ± 2.56 s
- Reaction time ([4]; 200 mg/kg oral, 0 (before administration)): 12.90 ± 2.92 s
- Mean of the weights eliciting painful stimulus ([5]; 40 mg/kg oral, 1 h): 145.0 grams
- Mean of the weights eliciting painful stimulus ([5]; 40 mg/kg oral, 2 h): 108.8 grams
- Mean of the weights eliciting painful stimulus ([5]; 40 mg/kg oral, 4 h): 105.0 grams
- Mean of the weights eliciting painful stimulus ([5]; 80 mg/kg oral, 1 h): 140 grams
- Mean of the weights eliciting painful stimulus ([5]; 80 mg/kg oral, 2 h): 128.8 grams
- Mean of the weights eliciting painful stimulus ([5]; 80 mg/kg oral, 4 h): 110.0 grams
- Mean of the weights eliciting painful stimulus ([5]; 160 mg/kg oral, 1 h): 142.8 grams
- Mean of the weights eliciting painful stimulus ([5]; 160 mg/kg oral, 2 h): 161.2 grams
- Mean of the weights eliciting painful stimulus ([5]; 160 mg/kg oral, 4 h): 140.0 grams
- % Inhibition ([6]; 40 mg/kg oral): 30%
- % Inhibition ([6]; 80 mg/kg oral): 32%
- % Inhibition ([6]; 160 mg/kg oral): 41.6%
